Data from patent US20230139171A1 (SITA Information Networking Computing UK Limited, priority 2019, published 2023).

Legend:
Assay type in all cases: cell-based
human TLR9 = molecular target: T1, human TLR9 (Homo sapiens, UniProt Q9NR96); assay: TLR9 inhibition reporter assay (HEK-Blue cells, SEAP reporter, ODN2006 stimulation); details: HEK-Blue cells overexpressing human TLR9, SEAP reporter, ODN2006 5 nM
T1 construct: host or cells: HEK-Blue cells
T1 sequence (Q9NR96 26-1032): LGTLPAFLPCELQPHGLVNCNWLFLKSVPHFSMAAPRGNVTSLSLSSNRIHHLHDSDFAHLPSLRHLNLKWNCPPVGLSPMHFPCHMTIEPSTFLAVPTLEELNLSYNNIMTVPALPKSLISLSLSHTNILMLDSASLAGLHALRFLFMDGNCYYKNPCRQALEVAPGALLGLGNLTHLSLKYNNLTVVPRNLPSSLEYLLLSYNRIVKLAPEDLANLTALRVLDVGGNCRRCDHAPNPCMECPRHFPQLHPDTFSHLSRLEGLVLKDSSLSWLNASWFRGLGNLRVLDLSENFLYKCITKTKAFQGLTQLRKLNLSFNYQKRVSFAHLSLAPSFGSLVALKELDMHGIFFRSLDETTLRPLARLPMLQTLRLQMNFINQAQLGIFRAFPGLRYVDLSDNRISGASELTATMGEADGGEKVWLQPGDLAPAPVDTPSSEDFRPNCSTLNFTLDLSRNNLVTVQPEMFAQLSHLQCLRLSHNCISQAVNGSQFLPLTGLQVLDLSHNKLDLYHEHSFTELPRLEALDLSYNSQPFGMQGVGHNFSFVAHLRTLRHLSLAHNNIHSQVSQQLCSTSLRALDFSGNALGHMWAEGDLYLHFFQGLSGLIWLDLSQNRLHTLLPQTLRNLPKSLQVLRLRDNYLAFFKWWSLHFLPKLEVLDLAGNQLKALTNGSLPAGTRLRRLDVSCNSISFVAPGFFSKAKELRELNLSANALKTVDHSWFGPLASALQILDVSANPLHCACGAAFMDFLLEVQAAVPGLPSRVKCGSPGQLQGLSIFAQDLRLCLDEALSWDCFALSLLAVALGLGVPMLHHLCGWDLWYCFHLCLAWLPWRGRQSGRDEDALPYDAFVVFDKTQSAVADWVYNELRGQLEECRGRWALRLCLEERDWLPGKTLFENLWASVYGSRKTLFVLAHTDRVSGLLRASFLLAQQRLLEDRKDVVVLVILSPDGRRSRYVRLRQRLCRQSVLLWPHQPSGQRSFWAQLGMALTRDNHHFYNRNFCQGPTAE
Method in brief: (§1)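 Human TLR7/8/9 HEK-Blue reporter lines; dose range 0.05 nM–50 μM; 30 min RT preincubation; stimulus gardiquimod 7.5 μM / R848 15.9 μM / ODN2006 5 nM respectively; 22 h, 37 °C; SEAP detected colorimetrically.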

human TLR7 = molecular target: T2, human TLR7 (Homo sapiens, UniProt Q9NYK1); assay: TLR7 inhibition reporter assay (HEK-Blue cells, SEAP reporter, gardiquimod stimulation); details: HEK-Blue cells overexpressing human TLR7, SEAP reporter, gardiquimod 7.5 μM; read-out: TLR7 IC50
T2 construct: host or cells: HEK-Blue cells
T2 sequence (Q9NYK1 27-1049): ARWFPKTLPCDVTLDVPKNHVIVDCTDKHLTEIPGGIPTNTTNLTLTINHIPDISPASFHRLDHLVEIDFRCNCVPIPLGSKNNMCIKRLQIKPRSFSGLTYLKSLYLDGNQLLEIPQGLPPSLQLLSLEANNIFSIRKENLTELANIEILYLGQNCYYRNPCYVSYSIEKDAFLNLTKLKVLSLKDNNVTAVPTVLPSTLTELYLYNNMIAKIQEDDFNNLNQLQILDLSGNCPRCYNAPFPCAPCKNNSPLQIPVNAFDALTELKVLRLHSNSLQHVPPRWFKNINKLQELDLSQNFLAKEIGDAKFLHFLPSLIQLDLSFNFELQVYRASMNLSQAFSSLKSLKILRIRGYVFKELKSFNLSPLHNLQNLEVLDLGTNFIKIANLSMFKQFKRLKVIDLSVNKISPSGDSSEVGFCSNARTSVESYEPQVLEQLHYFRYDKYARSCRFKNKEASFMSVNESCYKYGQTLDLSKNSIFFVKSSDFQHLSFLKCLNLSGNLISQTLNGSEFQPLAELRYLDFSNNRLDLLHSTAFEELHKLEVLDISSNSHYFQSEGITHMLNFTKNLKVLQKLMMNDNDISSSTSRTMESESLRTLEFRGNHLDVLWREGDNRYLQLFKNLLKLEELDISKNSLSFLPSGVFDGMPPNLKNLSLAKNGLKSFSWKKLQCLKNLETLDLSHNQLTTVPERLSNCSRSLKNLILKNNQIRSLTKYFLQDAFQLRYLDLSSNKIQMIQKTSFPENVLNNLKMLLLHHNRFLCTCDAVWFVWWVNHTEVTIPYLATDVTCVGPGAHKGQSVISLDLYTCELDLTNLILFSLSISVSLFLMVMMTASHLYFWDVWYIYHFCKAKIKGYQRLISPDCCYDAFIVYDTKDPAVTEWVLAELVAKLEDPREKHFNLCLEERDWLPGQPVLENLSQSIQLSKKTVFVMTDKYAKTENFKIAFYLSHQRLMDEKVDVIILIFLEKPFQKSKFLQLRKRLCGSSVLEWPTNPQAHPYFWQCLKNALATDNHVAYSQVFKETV
Method in brief: as §1

human TLR8 = molecular target: T3, human TLR8 (Homo sapiens, UniProt Q9NR97); assay: TLR8 inhibition reporter assay (HEK-Blue cells, SEAP reporter, R848 stimulation); details: HEK-Blue cells overexpressing human TLR8, SEAP reporter, R848 15.9 μM; read-out: TLR8 IC50
T3 construct: host or cells: HEK-Blue cells
T3 sequence (Q9NR97 27-1041): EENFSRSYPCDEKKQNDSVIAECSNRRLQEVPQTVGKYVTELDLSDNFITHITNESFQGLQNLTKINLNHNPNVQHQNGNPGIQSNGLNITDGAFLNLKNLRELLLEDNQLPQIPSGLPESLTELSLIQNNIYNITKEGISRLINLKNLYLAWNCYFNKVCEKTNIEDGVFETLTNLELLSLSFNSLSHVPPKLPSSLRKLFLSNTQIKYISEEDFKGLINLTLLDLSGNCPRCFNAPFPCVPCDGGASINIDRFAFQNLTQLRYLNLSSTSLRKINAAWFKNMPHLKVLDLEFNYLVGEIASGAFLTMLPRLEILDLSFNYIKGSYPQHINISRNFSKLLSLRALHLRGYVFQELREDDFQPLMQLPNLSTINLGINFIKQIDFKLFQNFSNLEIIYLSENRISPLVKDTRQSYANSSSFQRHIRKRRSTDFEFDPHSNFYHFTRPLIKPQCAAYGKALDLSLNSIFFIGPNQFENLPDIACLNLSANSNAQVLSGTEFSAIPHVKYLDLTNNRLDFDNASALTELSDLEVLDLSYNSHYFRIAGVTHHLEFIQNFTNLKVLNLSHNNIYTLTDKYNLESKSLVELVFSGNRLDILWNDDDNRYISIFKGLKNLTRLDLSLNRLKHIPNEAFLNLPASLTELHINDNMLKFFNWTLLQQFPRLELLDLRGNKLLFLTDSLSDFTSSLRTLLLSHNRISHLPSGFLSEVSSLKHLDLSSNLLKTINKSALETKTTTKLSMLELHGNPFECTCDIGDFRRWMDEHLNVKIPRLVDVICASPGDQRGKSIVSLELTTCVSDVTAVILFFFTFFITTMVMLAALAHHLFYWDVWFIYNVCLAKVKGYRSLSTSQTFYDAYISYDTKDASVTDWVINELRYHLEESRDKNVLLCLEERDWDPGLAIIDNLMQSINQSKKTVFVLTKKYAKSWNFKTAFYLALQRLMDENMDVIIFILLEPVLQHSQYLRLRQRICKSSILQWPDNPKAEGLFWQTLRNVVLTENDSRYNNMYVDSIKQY
Method in brief: as §1

Row | Compound | IC50 (human TLR9) [nM] | IC50 (human TLR7) [nM] | IC50 (human TLR8) [nM]
1 | Cc1cc2ncnn2cc1-c1[nH]c2sc(C3CCC(N4CCCOCC4)CC3)nc2c1C(C)C (single isomer, unassigned) [Example 146, 4-(4-(6-isopropyl-5-(7-methyl-[1,2,4]triazolo[1,5-a]pyridin-6-yl)-4H-pyrrolo[3,2-d]thiazol-2-yl)cyclohexyl)-1,4-oxazepane] | 16300 | 19.7 | 0.92
2 | Cc1cc2ncnn2cc1-c1[nH]c2sc(C3CCC(N4CCCOCC4)CC3)nc2c1C(C)C (single isomer, unassigned) [Example 147, 4-(4-(6-isopropyl-5-(7-methyl-[1,2,4]triazolo[1,5-a]pyridin-6-yl)-4H-pyrrolo[3,2-d]thiazol-2-yl)cyclohexyl)-1,4-oxazepane] | 18800 | 90.1 | 5.67
3 | Cc1cc2ncnn2cc1-c1[nH]c2sc(C3CCC(N4CCNC(=O)C4)CC3)nc2c1C(C)C (single isomer, unassigned) [Example 148, 4-(4-(6-isopropyl-5-(7-methyl-[1,2,4]triazolo[1,5-a]pyridin-6-yl)-4H-pyrrolo[3,2-d]thiazol-2-yl)cyclohexyl)piperazin-2-one] | > 50000 | 11.8 | 9.93
4 | Cc1cc2ncnn2cc1-c1[nH]c2sc(C3CCC(N4CCNC(=O)C4)CC3)nc2c1C(C)C (single isomer, unassigned) [Example 149, 4-(4-(6-isopropyl-5-(7-methyl-[1,2,4]triazolo[1,5-a]pyridin-6-yl)-4H-pyrrolo[3,2-d]thiazol-2-yl)cyclohexyl)piperazin-2-one] | > 50000 | 108 | 98.5
5 | COC1CN(C2CCC(c3nc4c(C(C)C)c(-c5cn6ncnc6cc5C)[nH]c4s3)CC2)C1 (single isomer, unassigned) [Example 150, 6-isopropyl-2-(4-(3-methoxyazetidin-1-yl)cyclohexyl)-5-(7-methyl-[1,2,4]triazolo[1,5-a]pyridin-6-yl)-4H-pyrrolo[3,2-d]thiazole] | 2830 | 0.57 | 0.39
6 | COC1CN(C2CCC(c3nc4c(C(C)C)c(-c5cn6ncnc6cc5C)[nH]c4s3)CC2)C1 (single isomer, unassigned) [Example 151, 6-isopropyl-2-(4-(3-methoxyazetidin-1-yl)cyclohexyl)-5-(7-methyl-[1,2,4]triazolo[1,5-a]pyridin-6-yl)-4H-pyrrolo[3,2-d]thiazole] | 23400 | 49.2 | 60
7 | Cc1cc2ncnn2cc1-c1[nH]c2sc(C3CCC(NC4COC4)CC3)nc2c1C(C)C (single isomer, unassigned) [Example 152, N-(4-(6-isopropyl-5-(7-methyl-[1,2,4]triazolo[1,5-a]pyridin-6-yl)-4H-pyrrolo[3,2-d]thiazol-2-yl)cyclohexyl)oxetan-3-amine] | 20900 | 13.7 | 31.6
8 | Cc1cc2ncnn2cc1-c1[nH]c2sc(C3CCC(NC4COC4)CC3)nc2c1C(C)C (single isomer, unassigned) [Example 153, N-(4-(6-isopropyl-5-(7-methyl-[1,2,4]triazolo[1,5-a]pyridin-6-yl)-4H-pyrrolo[3,2-d]thiazol-2-yl)cyclohexyl)oxetan-3-amine] | 22300 | 27.8 | 6.62
9 | Cc1cc2ncnn2cc1-c1[nH]c2sc(C3CCC(N4CCCC4)CC3)nc2c1C(C)C (single isomer, unassigned) [Example 154, 6-isopropyl-5-(7-methyl-[1,2,4]triazolo[1,5-a]pyridin-6-yl)-2-(4-(pyrrolidin-1-yl)cyclohexyl)-4H-pyrrolo[3,2-d]thiazole] | 9310 | 11.9 | 3.33
10 | Cc1cc2ncnn2cc1-c1[nH]c2sc(C3CCC(N4CCCC4)CC3)nc2c1C(C)C (single isomer, unassigned) [Example 155, 6-isopropyl-5-(7-methyl-[1,2,4]triazolo[1,5-a]pyridin-6-yl)-2-(4-(pyrrolidin-1-yl)cyclohexyl)-4H-pyrrolo[3,2-d]thiazole] | > 50000 | 41.5 | 21.5
11 | Cc1cc2ncnn2cc1-c1[nH]c2sc(C3CCC(NCC(C)(C)O)CC3)nc2c1C(C)C (single isomer, unassigned) [Example 156, 1-((4-(6-isopropyl-5-(7-methyl-[1,2,4]triazolo[1,5-a]pyridin-6-yl)-4H-pyrrolo[3,2-d]thiazol-2-yl)cyclohexyl)amino)-2-methylpropan-2-ol] | 10900 | 1.72 | 0.09
12 | Cc1cc2ncnn2cc1-c1[nH]c2sc(C3CCC(NCC(C)(C)O)CC3)nc2c1C(C)C (single isomer, unassigned) [Example 157, 1-((4-(6-isopropyl-5-(7-methyl-[1,2,4]triazolo[1,5-a]pyridin-6-yl)-4H-pyrrolo[3,2-d]thiazol-2-yl)cyclohexyl)amino)-2-methylpropan-2-ol] | 16400 | 37.4 | 11.9
